Experimental data as given in the supplement of paper PMC10307832.

Tests used:
[1] = compound: C1=CC2=C(C=C(C(=C2N=C1)O)N=NC3=CC4=C(C=C3)C=C(C=C4)S(=O)(=O)O)S(=O)(=O)O + NC(=O)Nc1cc(-c2cccc(F)c2)sc1C(=O)N[C@H]1CCCNC1 [AZD7762] (partner 0.2 µM); test: relative viability (nuclei count vs DMSO), 5 days (fraction); higher = more cells survive
Method in brief: (§1)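 Lung cancer cell lines in 1536-well plates got either a single drug or a fixed anchor-drug dose together with five library-drug doses (not always all listed) in √10 steps, by pin tool, on the day after seeding. Nuclei were counted after 5 days, and relative viability is the treated-to-vehicle ratio of nuclei counts. Values are medians of duplicate plates.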

[2] = compound: C1=CC2=C(C=C(C(=C2N=C1)O)N=NC3=CC4=C(C=C3)C=C(C=C4)S(=O)(=O)O)S(=O)(=O)O + O=C(CCCCCCC(=O)Nc1ccccc1)NO [Vorinostat] (partner 1 µM); test: as above
Method in brief: as §1

Row | Cell Line | relative viability ([1]; first compound 0.08 µM) | relative viability ([1]; first compound 0.253 µM) | relative viability ([1]; first compound 0.8 µM) | relative viability ([1]; first compound 2.53 µM) | relative viability ([1]; first compound 8 µM) | relative viability ([2]; first compound 0.08 µM) | relative viability ([2]; first compound 0.253 µM) | relative viability ([2]; first compound 0.8 µM) | relative viability ([2]; first compound 2.53 µM) | relative viability ([2]; first compound 8 µM)
1 | NCI-H596 | 1.25 | 1.12 | 1.13 | 1.04 | 1.17 | 0.544 | 0.645 | 0.545 | 0.613 | 0.649
2 | NCI-H647 | 0.473 | 0.321 | 0.513 | 0.471 | 0.345 | 0.646 | 0.607 | 0.563 | 0.639 | 0.437
3 | NCI-H650 | 0.872 | 0.996 | 0.967 | 0.922 | 0.998 | 0.435 | 0.472 | 0.416 | 0.413 | 0.175
4 | NCI-H661 | – | – | – | – | – | 0.765 | 0.756 | 0.783 | 0.785 | 0.796
5 | NCI-H727 | 0.689 | 0.639 | 0.646 | 0.639 | 0.658 | 1.13 | 1.26 | 1.09 | 1.12 | 1.09
6 | NCI-H838 | 1.01 | 0.882 | 0.89 | 0.965 | 0.882 | 0.755 | 0.681 | 0.712 | 0.688 | 0.71
7 | NCI-H1355 | 0.801 | 0.726 | 0.723 | 0.824 | 0.64 | 0.646 | 0.619 | 0.615 | 0.605 | 0.481
8 | NCI-H1395 | 0.383 | 0.404 | 0.395 | 0.411 | 0.358 | 0.674 | 0.596 | 0.554 | 0.73 | 0.551
9 | NCI-H1437 | 1.11 | 1.11 | 1.1 | 1.2 | 1.08 | 0.901 | 0.857 | 0.851 | 0.923 | 0.841
10 | NCI-H1648 | – | 0.712 | – | – | 0.717 | – | 0.825 | – | – | 0.479
11 | NCI-H1650 | – | – | – | – | – | 0.577 | 0.447 | 0.594 | 0.633 | 0.373
12 | NCI-H1651 | 0.501 | 0.49 | 0.474 | 0.489 | 0.437 | 0.66 | 0.561 | 0.566 | 0.535 | 0.546
13 | NCI-H1666 | 0.868 | 0.798 | 0.787 | 0.802 | 0.771 | 1.05 | 0.98 | 1.03 | 1.07 | 0.985
14 | NCI-H1703 | 0.147 | 0.163 | 0.13 | – | 0.16 | – | – | – | – | –
15 | NCI-H1734 | 0.633 | 0.558 | 0.566 | 0.527 | 0.566 | 0.788 | 0.852 | 0.757 | 0.718 | 0.859
16 | NCI-H1755 | 0.535 | 0.419 | 0.361 | 0.457 | 0.459 | 0.81 | 0.773 | 0.709 | 0.824 | 0.728
17 | NCI-H1792 | 1 | 0.655 | 0.723 | 0.715 | 0.836 | – | – | – | – | –
18 | NCI-H1793 | 0.411 | 0.407 | 0.481 | 0.497 | 0.455 | 0.797 | 0.814 | 0.795 | 0.78 | 0.838
19 | NCI-H1915 | 0.735 | 0.706 | 0.661 | 0.688 | 0.679 | 0.539 | 0.547 | 0.518 | 0.513 | 0.527
